Each compound was assayed on Septoria nodorum (assay: Test F: Septoria glume blotch, preventive spray on wheat seedlings, visual disease rating). Settings: Septoria glume blotch on wheat; 100 = 100% disease control, 0 = no disease control relative to controls.

In order of falling “Test F disease control rating” value:
1. COc1ccc(-c2c(C)nn(C)c2Oc2ccc(C#N)cc2Cl)c(Cl)c1 [compound 311]  60%
2. Cc1nn(C)c(Nc2c(Cl)cc(F)cc2Cl)c1-c1ccc(Cl)cc1Cl [compound 363]  0%

Same assay, conditions: Septoria glume blotch; 100 = 100% disease control, 0 = no control relative to controls

In order of falling “Test F rating (% disease control)” value:
1. Cc1nn(C)c(Nc2ccc(F)cc2Cl)c1-c1ccc(F)cc1F [compound 207]  64%
2. Cc1nn(C)c(Nc2ncc(F)cc2F)c1-c1ccccc1C(F)(F)F [compound 280]  0%
3. COc1cccc(Nc2c(-c3c(F)cccc3F)c(C)nn2C)c1Cl [compound 289]  0%
4. COc1cc(F)c(-c2c(C)nn(C)c2Oc2ccc(Cl)c(C#N)c2)c(F)c1 [compound 218]  0%
5. Cc1nn(C)c(Nc2c(F)cc(F)cc2F)c1-c1c(F)cccc1C(F)(F)F [compound 262]  0%
6. COc1cc(F)c(-c2c(C)nn(C)c2Oc2ccc(Cl)c(OC)c2)c(F)c1 [compound 211]  0%
7. Cc1nn(C)c(Nc2cc(F)ccc2F)c1-c1ccc(F)cc1Cl [compound 173]  0%

Each compound was assayed on Erysiphe graminis f sp. tritici (assay: Test J: wheat powdery mildew, preventive spray on wheat seedlings, visual disease rating). Settings: wheat powdery mildew, sprayed the day before inoculation; 100 = 100% disease control, 0 = no disease control relative to controls.

In order of rising “Test J disease control rating” value:
1. Cc1nn(C)c(Nc2c(Cl)cc(F)cc2Cl)c1-c1ccc(Cl)cc1Cl [compound 363]  43%
2. COc1ccc(-c2c(C)nn(C)c2Oc2ccc(C#N)cc2Cl)c(Cl)c1 [compound 311]  91%

Same assay, conditions: wheat powdery mildew; 100 = 100% disease control, 0 = no control relative to controls

In order of falling “Test J rating (% disease control)” value:
1. Cc1nn(C)c(Nc2ccc(F)cc2Cl)c1-c1ccc(F)cc1F [compound 207]  100%
2. Cc1nn(C)c(Nc2cc(F)ccc2F)c1-c1ccc(F)cc1Cl [compound 173]  100%
3. Cc1nn(C)c(Nc2c(F)cc(F)cc2F)c1-c1c(F)cccc1C(F)(F)F [compound 262]  99%
4. COc1cccc(Nc2c(-c3c(F)cccc3F)c(C)nn2C)c1Cl [compound 289]  97%
5. COc1cc(F)c(-c2c(C)nn(C)c2Oc2ccc(Cl)c(OC)c2)c(F)c1 [compound 211]  96%
6. Cc1nn(C)c(Nc2ncc(F)cc2F)c1-c1ccccc1C(F)(F)F [compound 280]  87%
7. COc1cc(F)c(-c2c(C)nn(C)c2Oc2ccc(Cl)c(C#N)c2)c(F)c1 [compound 218]  87%

These compounds were tested on Septoria tritici (assay: Test G: wheat leaf blotch, preventive spray on wheat seedlings, visual disease rating). Settings: wheat leaf blotch, sprayed the day before inoculation; 100 = 100% disease control, 0 = no disease control relative to controls.
Description: General protocol for preparing test suspensions for Tests A-J: the test compounds were first dissolved in acetone in an amount equal to 3% of the final volume and then suspended at the desired concentration (in ppm) in acetone and purified water (50/50 mix by volume) containing 250 ppm of the surfactant Trem® 014 (polyhydric alcohol esters). The resulting test suspensions were then used in Tests A-J. Spraying a 200 ppm test suspension to the point of run-off on the test plants was the equivalent of a rate of 500 g/ha. Unless otherwise indicated, the rating values indicate a 200 ppm test suspension was used. (An asterisk “*” next to the rating value indicates a 40 ppm test suspension was used.)
The test suspension was sprayed to the point of run-off on wheat seedlings. The following day the seedlings were inoculated with a spore suspension of Septoria tritici (the causal agent of wheat leaf blotch) and incubated in saturated atmosphere at 24° C. for 48 h. and then the seedlings were moved to a growth chamber at 20° C. for 19 additional days, after which time visual disease ratings were made.

In order of rising “Test G disease control rating” value:
1. Cc1nn(C)c(Nc2c(Cl)cc(F)cc2Cl)c1-c1ccc(Cl)cc1Cl [compound 363]  99%
2. COc1ccc(-c2c(C)nn(C)c2Oc2ccc(C#N)cc2Cl)c(Cl)c1 [compound 311]  100%

Same assay, conditions: wheat leaf blotch; 100 = 100% disease control, 0 = no control relative to controls

In order of rising “Test G rating (% disease control)” value:
1. Cc1nn(C)c(Nc2c(F)cc(F)cc2F)c1-c1c(F)cccc1C(F)(F)F [compound 262]  0%
2. Cc1nn(C)c(Nc2ncc(F)cc2F)c1-c1ccccc1C(F)(F)F [compound 280]  96%
3. Cc1nn(C)c(Nc2cc(F)ccc2F)c1-c1ccc(F)cc1Cl [compound 173]  98%
4. COc1cccc(Nc2c(-c3c(F)cccc3F)c(C)nn2C)c1Cl [compound 289]  99%
5. COc1cc(F)c(-c2c(C)nn(C)c2Oc2ccc(Cl)c(C#N)c2)c(F)c1 [compound 218]  99%
6. COc1cc(F)c(-c2c(C)nn(C)c2Oc2ccc(Cl)c(OC)c2)c(F)c1 [compound 211]  99%
7. Cc1nn(C)c(Nc2ccc(F)cc2Cl)c1-c1ccc(F)cc1F [compound 207]  100%

Each compound was assayed on Alternaria solani (assay: Test C: tomato early blight, preventive spray on tomato seedlings, visual disease rating). Settings: tomato early blight; 100 = 100% disease control, 0 = no control relative to controls.

In order of rising “Test C rating (% disease control)” value:
1. Cc1nn(C)c(Nc2ncc(F)cc2F)c1-c1ccccc1C(F)(F)F [compound 280]  0%
2. COc1cccc(Nc2c(-c3c(F)cccc3F)c(C)nn2C)c1Cl [compound 289]  0%
3. COc1cc(F)c(-c2c(C)nn(C)c2Oc2ccc(Cl)c(C#N)c2)c(F)c1 [compound 218]  0%
4. COc1cc(F)c(-c2c(C)nn(C)c2Oc2ccc(Cl)c(OC)c2)c(F)c1 [compound 211]  0%
5. Cc1nn(C)c(Nc2c(F)cc(F)cc2F)c1-c1c(F)cccc1C(F)(F)F [compound 262]  51%
6. Cc1nn(C)c(Nc2cc(F)ccc2F)c1-c1ccc(F)cc1Cl [compound 173]  86%
7. Cc1nn(C)c(Nc2ccc(F)cc2Cl)c1-c1ccc(F)cc1F [compound 207]  93%

Same assay, conditions: tomato early blight; 100 = 100% disease control, 0 = no disease control relative to controls

In order of falling “Test C disease control rating” value:
1. COc1ccc(-c2c(C)nn(C)c2Oc2ccc(C#N)cc2Cl)c(Cl)c1 [compound 311]  0%
2. Cc1nn(C)c(Nc2c(Cl)cc(F)cc2Cl)c1-c1ccc(Cl)cc1Cl [compound 363]  0%

What follows are compounds tested on Puccinia recondita f. sp. tritici (assay: Test H: wheat leaf rust, curative spray on inoculated wheat seedlings, visual disease rating). Settings: wheat leaf rust, curative; 100 = 100% disease control, 0 = no control relative to controls.

In order of falling “Test H rating (% disease control)” value:
1. COc1cc(F)c(-c2c(C)nn(C)c2Oc2ccc(Cl)c(C#N)c2)c(F)c1 [compound 218]  17%
2. Cc1nn(C)c(Nc2ncc(F)cc2F)c1-c1ccccc1C(F)(F)F [compound 280]  8%
3. COc1cccc(Nc2c(-c3c(F)cccc3F)c(C)nn2C)c1Cl [compound 289]  0%
4. Cc1nn(C)c(Nc2ccc(F)cc2Cl)c1-c1ccc(F)cc1F [compound 207]  0%
5. Cc1nn(C)c(Nc2c(F)cc(F)cc2F)c1-c1c(F)cccc1C(F)(F)F [compound 262]  0%
6. COc1cc(F)c(-c2c(C)nn(C)c2Oc2ccc(Cl)c(OC)c2)c(F)c1 [compound 211]  0%
7. Cc1nn(C)c(Nc2cc(F)ccc2F)c1-c1ccc(F)cc1Cl [compound 173]  0%

Same assay, conditions: wheat leaf rust, sprayed after inoculation; 100 = 100% disease control, 0 = no disease control relative to controls

In order of rising “Test H disease control rating” value:
1. COc1ccc(-c2c(C)nn(C)c2Oc2ccc(C#N)cc2Cl)c(Cl)c1 [compound 311]  0%
2. Cc1nn(C)c(Nc2c(Cl)cc(F)cc2Cl)c1-c1ccc(Cl)cc1Cl [compound 363]  0%

These compounds were tested on Puccinia recondita f. sp. tritici (assay: Test I: wheat leaf rust, preventive spray on wheat seedlings, visual disease rating). Settings: wheat leaf rust, preventive; 100 = 100% disease control, 0 = no control relative to controls.

In order of falling “Test I rating (% disease control)” value:
1. Cc1nn(C)c(Nc2ccc(F)cc2Cl)c1-c1ccc(F)cc1F [compound 207]  99%
2. COc1cccc(Nc2c(-c3c(F)cccc3F)c(C)nn2C)c1Cl [compound 289]  96%
3. COc1cc(F)c(-c2c(C)nn(C)c2Oc2ccc(Cl)c(C#N)c2)c(F)c1 [compound 218]  92%
4. Cc1nn(C)c(Nc2cc(F)ccc2F)c1-c1ccc(F)cc1Cl [compound 173]  83%
5. Cc1nn(C)c(Nc2c(F)cc(F)cc2F)c1-c1c(F)cccc1C(F)(F)F [compound 262]  68%
6. Cc1nn(C)c(Nc2ncc(F)cc2F)c1-c1ccccc1C(F)(F)F [compound 280]  18%
7. COc1cc(F)c(-c2c(C)nn(C)c2Oc2ccc(Cl)c(OC)c2)c(F)c1 [compound 211]  17%

Same assay, conditions: wheat leaf rust, sprayed the day before inoculation; 100 = 100% disease control, 0 = no disease control relative to controls

In order of rising “Test I disease control rating” value:
1. Cc1nn(C)c(Nc2c(Cl)cc(F)cc2Cl)c1-c1ccc(Cl)cc1Cl [compound 363]  96%
2. COc1ccc(-c2c(C)nn(C)c2Oc2ccc(C#N)cc2Cl)c(Cl)c1 [compound 311]  99%

What follows are compounds tested on Botrytis cinerea (assay: Test B: tomato Botrytis, preventive spray on tomato seedlings, visual disease rating). Settings: tomato Botrytis; 100 = 100% disease control, 0 = no control relative to controls.

In order of falling “Test B rating (% disease control)” value:
1. COc1cccc(Nc2c(-c3c(F)cccc3F)c(C)nn2C)c1Cl [compound 289]  100%
2. Cc1nn(C)c(Nc2ccc(F)cc2Cl)c1-c1ccc(F)cc1F [compound 207]  100%
3. Cc1nn(C)c(Nc2cc(F)ccc2F)c1-c1ccc(F)cc1Cl [compound 173]  100%
4. Cc1nn(C)c(Nc2ncc(F)cc2F)c1-c1ccccc1C(F)(F)F [compound 280]  99%
5. Cc1nn(C)c(Nc2c(F)cc(F)cc2F)c1-c1c(F)cccc1C(F)(F)F [compound 262]  99%
6. COc1cc(F)c(-c2c(C)nn(C)c2Oc2ccc(Cl)c(C#N)c2)c(F)c1 [compound 218]  94%
7. COc1cc(F)c(-c2c(C)nn(C)c2Oc2ccc(Cl)c(OC)c2)c(F)c1 [compound 211]  77%

Same assay, conditions: tomato Botrytis; 100 = 100% disease control, 0 = no disease control relative to controls

In order of rising “Test B disease control rating” value:
1. Cc1nn(C)c(Nc2c(Cl)cc(F)cc2Cl)c1-c1ccc(Cl)cc1Cl [compound 363]  65%
2. COc1ccc(-c2c(C)nn(C)c2Oc2ccc(C#N)cc2Cl)c(Cl)c1 [compound 311]  100%

Source: patent US10448639B2, “Fungicidal pyrazoles” (FMC CORPORATION, priority 2009, dated 2019)
